Data taken from US20150031655A1, “COMBINATION OF LIVER X RECEPTOR MODULATOR AND ESTROGEN RECEPTOR MODULATOR FOR THE TREATMENT OF AGE-RELATED DISEASES” (UNIVERSITY OF NORTH DAKOTA, priority 2011, published 2015).

Assays:
LXRα = target: T1, LXRα (Homo sapiens, UniProt Q13133); test: ChIP, LXRα binding to the LXRE in the α-synuclein promoter; assay type: cell-based; details: SH-SY5Y; for LXRα binding to the LXRE on the α-synuclein promoter: treatment alone vs control
T1 construct: endogenous in cells; host or cells: SH-SY5Y human neuroblastoma cells
T1 sequence (Q13133 1-447): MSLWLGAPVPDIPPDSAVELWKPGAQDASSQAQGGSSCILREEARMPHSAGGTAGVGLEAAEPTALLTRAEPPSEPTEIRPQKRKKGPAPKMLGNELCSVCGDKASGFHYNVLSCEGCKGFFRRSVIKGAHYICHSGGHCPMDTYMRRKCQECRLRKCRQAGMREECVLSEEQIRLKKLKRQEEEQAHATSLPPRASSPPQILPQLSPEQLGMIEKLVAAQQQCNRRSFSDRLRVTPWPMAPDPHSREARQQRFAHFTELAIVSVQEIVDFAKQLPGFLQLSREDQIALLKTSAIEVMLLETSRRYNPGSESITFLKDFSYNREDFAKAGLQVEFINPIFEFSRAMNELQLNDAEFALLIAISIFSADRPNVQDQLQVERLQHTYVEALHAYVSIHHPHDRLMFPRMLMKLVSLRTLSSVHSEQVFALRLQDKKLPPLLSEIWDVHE
Experimental: (§1) Human neuroblastoma SH-SY5Y cells were grown in DMEM/F12 medium containing 10% fetal bovine serum (FBS) and 1% antibiotic/antimycotic mix. Cells were maintained at 37° C. in a saturated humidity atmosphere containing 95% air and 5% CO2.
(§2) ChIP analysis was performed to evaluate the extent of ERα/ERβ and LXRα/LXRβ binding to the DNA elements in the TH promoter and α-synuclein promoter regions respectively using “SimpleChIP™ Enzymatic Chromatic IP kit” from Cell Signaling (Boston, Mass.).
(§3) Briefly, cells from each treatment group (3×10^6 cells) were washed with PBS, trypsinized, centrifuged at 5000 g. The pellet containing the cells was further washed with PBS and cross-linked using 37% formaldehyde for 15 min followed by the addition of glycine solution to cease the cross-linking reaction.
(§4) The cells were washed with 4× volumes of 1×PBS and centrifuged at ˜220 g for 5 min. The pellet was resuspended and incubated for 10 min in 5 ml of tissue lysis buffer containing DTT and protease and phosphatase inhibitors. The subsequent steps to isolate the cross-linked chromatin were performed according to the manufacturer's protocol.
The cross-linked chromatin from each sample was apportioned into four equal parts. One quarter of the cross-linked chromatin was set aside as “input.” One quarter of the cross-linked chromatin from each sample was incubated with 5 μg of anti-ERα mouse antibody (Cell Signaling, Boston, Mass.) and 5 μg of anti-ERβ rabbit antibody (Upstate, Bedford, Mass.), or 5 μg of anti-LXRα rabbit antibody (Abcam, Cambridge, Mass.) and 5 μg of anti-LXRβ mouse antibody (Abcam, Cambridge, Mass.), while the remaining one quarter of the cross-linked chromatin from each sample was incubated with 5 μg of normal Rabbit IgG to serve as negative control. […]
The crude DNA extract was eluted and then washed several times with wash buffer containing ethanol (provided with the kit) followed by purification with the use of DNA spin columns provided by the manufacturer. […] The DNA fragment size was determined by electrophoresis on a 1.2% agarose FlashGel^R system (Lonza, Rockland, Me.).
(§5) The relative abundance of the ERα or ERβ antibody precipitated chromatin containing the ERE in the TH promoter region and LXRα or LXRβ antibody precipitated chromatin containing the LXRE in the α-synuclein promoter region was determined by qPCR using an iQ SYBR Green Supermix kit following the manufacturer's instructions (BioRad, Hercules, Calif.) and sequence specific primers (See Table 1 above). […] The fold enrichment of the ERE in the TH promoter region and LXRE in the α-synuclein promoter region was calculated using the ΔΔCt method (K. J. Livak et al., Methods, 25, 402 (2001)) which normalizes ChIP Ct values of each sample to the % input and background.

LXRβ = target: T2, LXRβ (Homo sapiens, UniProt P55055); test: ChIP, LXRβ binding to the LXRE in the α-synuclein promoter; assay type: cell-based; set-up: endogenous in cells; host or cells: SH-SY5Y human neuroblastoma cells; details: SH-SY5Y
T2 sequence (P55055 1-460): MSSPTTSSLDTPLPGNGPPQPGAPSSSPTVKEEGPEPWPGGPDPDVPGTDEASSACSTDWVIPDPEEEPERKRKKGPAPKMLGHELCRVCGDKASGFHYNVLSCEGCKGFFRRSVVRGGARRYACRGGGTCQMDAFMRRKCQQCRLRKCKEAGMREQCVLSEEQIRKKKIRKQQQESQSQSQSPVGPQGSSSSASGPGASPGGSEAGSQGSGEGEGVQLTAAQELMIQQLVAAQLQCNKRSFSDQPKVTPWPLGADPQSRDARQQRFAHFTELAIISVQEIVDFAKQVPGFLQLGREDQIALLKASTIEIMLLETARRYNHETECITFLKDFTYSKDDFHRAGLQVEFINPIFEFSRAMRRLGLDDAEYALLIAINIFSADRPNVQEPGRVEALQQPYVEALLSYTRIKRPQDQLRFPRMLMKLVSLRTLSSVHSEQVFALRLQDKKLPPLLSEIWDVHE
Experimental: as §1, §2, §3, §4
The cross-linked chromatin from each sample was apportioned into four equal parts. One quarter of the cross-linked chromatin was set aside as “input.” One quarter of the cross-linked chromatin from each sample was incubated with 5 μg of anti-ERα mouse antibody (Cell Signaling, Boston, Mass.) and 5 μg of anti-ERβ rabbit antibody (Upstate, Bedford, Mass.), or 5 μg of anti-LXRα rabbit antibody (Abcam, Cambridge, Mass.) and 5 μg of anti-LXRβ mouse antibody (Abcam, Cambridge, Mass.), while the remaining one quarter of the cross-linked chromatin from each sample was incubated with 5 μg of normal Rabbit IgG to serve as negative control.
The cross-linked chromatin samples were incubated overnight at 4° C. with their respective antibodies. The DNA-protein complexes were collected with Protein G agarose beads and washed to remove non-specific antibody binding. The DNA from the DNA-protein complexes from all the samples including the input and negative control was reverse cross-linked by incubation with 2 μL of Proteinase K for 2 hours at 65° C.
The crude DNA extract was eluted and then washed several times with wash buffer containing ethanol (provided with the kit) followed by purification with the use of DNA spin columns provided by the manufacturer. The pure DNA was eluted out of the DNA spin columns using 50 μL of the DNA elution buffer provided in the kit. 1 μL of the purified DNA was used for DNA concentration analysis using the “Quant-iT™ dsDNA Assay kit” from Invitrogen (Carlsbad, Calif.). The DNA fragment size was determined by electrophoresis on a 1.2% agarose FlashGel^R system (Lonza, Rockland, Me.).
as §5

Row | Structure (SMILES) | LXRα binding to the LXRE on the α-synuclein promoter (LXRα) | increase of LXRβ binding to the LXRE in the α-synuclein promoter (LXRβ; treatment alone vs control) | 27-OHC-induced increase in LXRβ binding to the LXRE (LXRβ; co-treatment with 27-OHC) | decrease in LXRβ binding to the LXRE on the α-synuclein promoter (LXRβ; treatment alone vs control) | LXRα binding to the LXRE in the α-synuclein promoter (LXRα; in combination with 27-OHC) | increase of LXRβ binding to the LXRE on the α-synuclein promoter (LXRβ; in combination with 27-OHC)
1 | C[C@@H](CO)CCC[C@@H](C)[C@H]1CC[C@H]2[C@@H]3CC=C4C[C@@H](O)CC[C@]4(C)[C@H]3CC[C@]12C [27-OHC, 27-hydroxycholesterol] | no significant augmentation | ~3 fold |  |  |  | 
2 | CC(C)CCC[C@@H](C)[C@H]1CC[C@H]2[C@@H]3C[C@@H]4O[C@@]45C[C@@H](OS(=O)(=O)O)CC[C@]5(C)[C@H]3CC[C@]12C [ECHS, 5α,6α-epoxycholesterol-3-sulfate] | did not significantly attenuate |  | significantly reversed | ~2.8 fold |  | 
3 | Cl.O=C(O)Cc1cccc(OCCCN(Cc2cccc(C(F)(F)F)c2Cl)CC(c2ccccc2)c2ccccc2)c1 [GW3965, 3-[3-[N-(2-Chloro-3-trifluoromethylbenzyl)-(2,2-diphenylethyl)amino]propyloxy]phenylacetic acid hydrochloride] | did not elicit any increase | 3.5 fold |  |  | did not elicit any increase | 4 fold
